In patent US10322110B2, “Imidazole-based antimicrobial agents” (priority 2014, dated 2019):
≈ marks a conversion by molar mass, not a printed value. Read-outs that look alike come from different tables or passages of the source.

How the values were obtained:
Assay type in all cases: cell-based
[1] = test system: Staphylococcus aureus MSSA (Newman); test: broth microdilution MIC assay, Staphylococcus aureus MSSA (Newman); details: for MIC: Staphylococcus aureus; for Antibacterial activity Staphylococcus aureus (MSSA): MIC100 class score, broth microdilution
[2] = test system: penicillin-, erythromycin- and tetracycline-resistant Streptococcus pneumoniae (ATCC 700677), ARSP; test: microbe, parasite or virus in culture; details: ATCC700677, MIC activity class, read-out: Antibacterial activity ARSP (multi-drug resistant-SP)
[3] = test system: Bacillus subtilis (Marburg strain, ATCC6051); test: microbe, parasite or virus in culture; details: ATCC6051, read-out: Antibacterial activity BS (Bacillus substilis)
[4] = test system: Human hepatocytes (HepaRG cells); test: human cytotoxicity assay in vitro (CellTiter-Glo), hepatocytes; details: cytotoxicity class
[5] = test system: Streptococcus pneumoniae (Chester, ATCC49619); test: broth microdilution MIC assay, Streptococcus pneumoniae; details: MIC100 class score, 24 h
[6] = test system: Staphylococcus aureus MRSA (COL); test: broth microdilution MIC assay, Staphylococcus aureus MRSA (COL); details: for MIC: Staphylococcus aureus, MRSA
[7] = test system: Staphylococcus epidermidis (PCI 1200, ATCC12228); test: broth microdilution MIC assay, Staphylococcus epidermidis; details: ATCC12228, read-out: Antibacterial activity SE (Staphylococcus epidermidis)
[8] = 24 h, read-out: Antibacterial activity Staphylococcus aureus (MSSA)
[9] = read-out: Antibacterial activity MSSA (Staphylococcus aureus MSSA)
[10] = read-out: Antibacterial activity MRSA (Staphylococcus aureus MRSA)
[11] = 24 h, read-out: Antibacterial activity Staphylococcus aureus (MRSA)
[12] = MIC100 class score, broth microdilution, 24 h
[13] = MIC100 class score, broth microdilution, 24 h, read-out: Antibacterial activity Staphylococcus aureus (MRSA)

SMILES | MIC [1, 8] [µg/mL] | MIC [1, 9] [µg/mL] | MIC [2] [µg/mL] | MIC [3] [µg/mL] | cytotoxicity cell line H (hepatocytes) [4] | Antibacterial activity Streptococcus pneumoniae [5] | MIC [6, 10] [µg/mL] | MIC [7] [µg/mL] | MIC [6, 11] [µg/mL] | Antibacterial activity Staphylococcus aureus (MSSA) ([1]; 24 h) | Antibacterial activity Staphylococcus aureus (MRSA) [6, 12] | MIC [6, 13] [µg/mL]
Cc1[nH]c(-c2ccc(-c3cccc(Cl)c3Cl)o2)nc1-c1ccccc1 [Compound 2] | 20 to 50 (≈ 54.2 to 135 µM) | 20 to 50 (≈ 54.2 to 135 µM) | 2 to 5 (≈ 5.42 to 13.5 µM) | 20 to 50 (≈ 54.2 to 135 µM) | 2 |  |  |  |  |  |  | 
Cc1nc(-c2ccc(-c3ccc(Cl)cc3Cl)o2)[nH]c1-c1ccc(F)cc1 [Compound 16] |  | 1 to 3 (≈ 2.58 to 7.75 µM) | < 1 | 3 to 10 (≈ 7.75 to 25.8 µM) | 3 | 3 (MIC100 of 2-5 μg/ml) | 1 to 3 (≈ 2.58 to 7.75 µM) | 3 to 10 (≈ 7.75 to 25.8 µM) |  |  |  | 
Cc1[nH]c(-c2ccc(-c3ccccc3OC(F)(F)F)o2)nc1-c1ccccc1 [Compound 18] | 1 to 3 (≈ 2.6 to 7.81 µM) | 1 to 3 (≈ 2.6 to 7.81 µM) | < 1 | 1 to 3 (≈ 2.6 to 7.81 µM) | 2 |  | 3 to 10 (≈ 7.81 to 26 µM) | 3 to 10 (≈ 7.81 to 26 µM) | 3 to 10 (≈ 7.81 to 26 µM) |  |  | 
Cc1nc(-c2ccc(-c3ccccc3C(F)(F)F)o2)[nH]c1-c1ccccc1Cl [Compound 20] |  | 20 to 50 (≈ 49.7 to 124 µM) | 2 to 5 (≈ 4.97 to 12.4 µM) | 20 to 50 (≈ 49.7 to 124 µM) | 3 |  |  |  |  |  |  | 
Cc1nc(-c2ccc(-c3ccccc3OC(F)(F)F)o2)[nH]c1-c1cccc(Cl)c1 [Compound 21] |  | 1 to 3 (≈ 2.39 to 7.16 µM) | < 1 | 3 to 10 (≈ 7.16 to 23.9 µM) | 3 |  |  | 20 to 50 (≈ 47.8 to 119 µM) |  | 3 (MIC100 of 3-10 μg/ml) | 3 (MIC100 of 3-10 μg/ml) | 
Cc1[nH]c(-c2ccc(-c3ccccc3OC(F)(F)F)o2)nc1-c1ccc(F)cc1 [Compound 23, 4-(4-Fluoro-phenyl)-5-methyl-2-[5-(2-trifluoromethoxy-phenyl)-furan-2-yl]-1H-imidazole] |  | 1 to 3 (≈ 2.49 to 7.46 µM) | < 1 | 1 to 3 (≈ 2.49 to 7.46 µM) | 3 |  | 3 to 10 (≈ 7.46 to 24.9 µM) | 20 to 50 (≈ 49.7 to 124 µM) |  | 3 (MIC100 of 3-10 μg/ml) |  | 
Cc1[nH]c(-c2ccc(-c3ccccc3OC(F)(F)F)o2)nc1-c1ccc(Cl)cc1 [Compound 24] |  | 3 to 10 (≈ 7.16 to 23.9 µM) | < 1 | 3 to 10 (≈ 7.16 to 23.9 µM) | 2 |  | 3 to 10 (≈ 7.16 to 23.9 µM) | 20 to 50 (≈ 47.8 to 119 µM) |  | 3 (MIC100 of 3-10 μg/ml) |  | 
Cc1[nH]c(-c2ccc(-c3ccccc3OC(F)(F)F)o2)nc1Cc1ccc(Br)cc1 [Compound 30, 4-(4-Bromo-benzyl)-5-methyl-2-[5-(2-trifluoromethoxy-phenyl)-furan-2-yl]-1H-imidazole] |  | 3 to 10 (≈ 6.29 to 21 µM) | < 1 | 3 to 10 (≈ 6.29 to 21 µM) | 3 |  | 3 to 10 (≈ 6.29 to 21 µM) | 11 to 201 (≈ 23 to 421 µM) |  | 3 (MIC100 of 3-10 μg/ml) |  | 
Cc1nc(-c2ccc(-c3cc(F)ccc3C(F)(F)F)o2)[nH]c1-c1ccccc1 [Compound 31a] | 20 to 50 (≈ 51.8 to 129 µM) | 20 to 50 (≈ 51.8 to 129 µM) | 2 to 5 (≈ 5.18 to 12.9 µM) | 20 to 50 (≈ 51.8 to 129 µM) | 2 |  |  |  |  |  |  | 
Cc1nc(-c2ccc(-c3cc(C(F)(F)F)cc(C(F)(F)F)c3)o2)[nH]c1-c1ccccc1 [Compound 35] | 3 to 10 (≈ 6.88 to 22.9 µM) | 3 to 10 (≈ 6.88 to 22.9 µM) | 6 to 10 (≈ 13.8 to 22.9 µM) | 3 to 10 (≈ 6.88 to 22.9 µM) |  |  | 20 to 50 (≈ 45.8 to 115 µM) | 20 to 50 (≈ 45.8 to 115 µM) | 20 to 50 (≈ 45.8 to 115 µM) |  |  | 
Cc1[nH]c(-c2ccc(-c3ccc(Cl)c(C(F)(F)F)c3)o2)nc1-c1ccccc1 [Compound 39] | 3 to 10 (≈ 7.45 to 24.8 µM) | 1 to 3 (≈ 2.48 to 7.45 µM) | 2 to 5 (≈ 4.97 to 12.4 µM) | 3 to 10 (≈ 7.45 to 24.8 µM) |  |  | 3 to 10 (≈ 7.45 to 24.8 µM) | 1 to 3 (≈ 2.48 to 7.45 µM) |  |  |  | 3 to 10 (≈ 7.45 to 24.8 µM)
Cc1nc(-c2ccc(-c3ccc(Cl)c(OC(F)(F)F)c3)o2)[nH]c1-c1ccccc1 [Compound 41] | 3 to 10 (≈ 7.16 to 23.9 µM) | 3 to 10 (≈ 7.16 to 23.9 µM) | < 1 | 3 to 10 (≈ 7.16 to 23.9 µM) | 2 |  | 3 to 10 (≈ 7.16 to 23.9 µM) | 11 to 201 (≈ 26.3 to 480 µM) | 3 to 10 (≈ 7.16 to 23.9 µM) |  |  | 
Cc1[nH]c(-c2ccc(-c3ccc(Cl)c(C(F)(F)F)c3)o2)nc1-c1ccc(F)cc1 [Compound 42] |  | 1 to 3 (≈ 2.38 to 7.13 µM) | < 1 | 1 to 3 (≈ 2.38 to 7.13 µM) |  |  |  | 3 to 10 (≈ 7.13 to 23.8 µM) |  |  |  | 
Cc1nc(-c2ccc(-c3ccc(Cl)c(OC(F)(F)F)c3)o2)[nH]c1-c1ccc(F)cc1 [Compound 43] |  | 3 to 10 (≈ 6.87 to 22.9 µM) | < 1 | 3 to 10 (≈ 6.87 to 22.9 µM) | 3 |  | 11 to 201 (≈ 25.2 to 460 µM) | 20 to 50 (≈ 45.8 to 114 µM) |  | 3 (MIC100 of 3-10 μg/ml) | 2 (MIC100 of 11-201 μg/ml) | 
Cc1[nH]c(-c2ccc(-c3ccc(C(F)(F)F)cc3)o2)nc1-c1ccccc1 [Compound 45] | 3 to 10 (≈ 8.14 to 27.1 µM) | 3 to 10 (≈ 8.14 to 27.1 µM) | 2 to 5 (≈ 5.43 to 13.6 µM) | 3 to 10 (≈ 8.14 to 27.1 µM) |  |  | 11 to 201 (≈ 29.9 to 546 µM) | 3 to 10 (≈ 8.14 to 27.1 µM) |  |  |  | 3 to 10 (≈ 8.14 to 27.1 µM)
Cc1[nH]c(-c2ccc(-c3ccc(OC(F)(F)F)cc3)o2)nc1-c1ccc(Cl)cc1 [Compound 48] |  | 3 to 10 (≈ 7.16 to 23.9 µM) | < 1 | 3 to 10 (≈ 7.16 to 23.9 µM) | 2 |  | 3 to 10 (≈ 7.16 to 23.9 µM) | 11 to 201 (≈ 26.3 to 480 µM) |  | 3 (MIC100 of 3-10 μg/ml) |  | 
Cc1[nH]c(-c2ccc(-c3ccc(OC(F)(F)F)cc3Cl)o2)nc1-c1ccc(F)cc1 [Compound 51] |  | 11 to 201 (≈ 25.2 to 460 µM) | 2 to 5 (≈ 4.58 to 11.4 µM) | 3 to 10 (≈ 6.87 to 22.9 µM) | 3 | 3 (MIC100 of 2-5 μg/ml) | 20 to 50 (≈ 45.8 to 114 µM) | 20 to 50 (≈ 45.8 to 114 µM) |  | 2 (MIC100 of 11-201 μg/ml) |  | 
FC(F)(F)Oc1ccccc1-c1ccc(-c2nc(Cl)c(-c3ccccc3)[nH]2)o1 [Compound 64] |  | 3 to 10 (≈ 7.41 to 24.7 µM) | 2 to 5 (≈ 4.94 to 12.4 µM) | 20 to 50 (≈ 49.4 to 124 µM) | 3 |  | 20 to 50 (≈ 49.4 to 124 µM) | 20 to 50 (≈ 49.4 to 124 µM) |  | 2 (MIC100 of 11-201 μg/ml) |  | 
